From patent US8242166B2, “C(10) ethyl ester and C(10) cyclopropyl ester substituted taxanes” (Florida State University Research Foundation, Inc., priority 2008, dated 2012)
Read-outs that look alike come from different tables or passages of the source.

Experiments:
SK-MEL-28 = experiment: MTT cytotoxicity (IC50), SK-MEL-28; assay type: cell-based; settings: Homo sapiens, 72 h, read-out: IN Vitro IC50 (nm) ske-mel28
Protocol: (§1) Compound 17932 was tested in four of these cell lines, while the remaining compounds were tested in all of these cell lines. All cell lines were maintained in RPMI-1640 tissue culture medium (TCM, supplemented with antibiotics and 10% fetal bovine serum) and cultured at 37° C. in humidified air containing 5% CO2. To assess the antiproliferative effects of the test compounds, 172 μL of tumor cell suspension (1.45×10^4 cells/ml) were added to each well of a 96-well plate and incubated for 24 h at 37° C. in 5% CO2 in air to allow cells to adhere. Seven 2-fold drug dilutions in TCM/DMSO were performed in triplicate in separate 96-well plates and 28 μL was transferred to the wells containing tumor cells (200 μL final volume/0.1% DMSO). Plates were incubated for 72 h and cell viability was determined by adding 50 μL of warm TCM containing 5 mg/mL MTT (3-[4,5-dimethylthiazol-2-yl]-2,5-diphenyltetrazolium bromide) to each well and incubating for 1 h at 37° C. Plates were processed and the absorbances of the resulting solutions were measured by a plate reader at 570 nm. […] (GraphPad Prism version 4.00 for Windows). Studies were conducted by Taxolog, Inc., Tallahassee, Fla.

786-0 = experiment: MTT cytotoxicity (IC50), 786-0; assay type: cell-based; settings: Homo sapiens
Protocol: as §1

A375 = experiment: MTT cytotoxicity (IC50), A375; assay type: cell-based; settings: Homo sapiens, A-375
Protocol: as §1

TK-10 = experiment: MTT cytotoxicity (IC50), TK-10; assay type: cell-based; settings: Homo sapiens, 72 h, read-out: IN Vitro IC50 (nm) TK10
Protocol: as §1

MALME-3 = experiment: MTT cytotoxicity (IC50), MALME-3; assay type: cell-based; settings: Homo sapiens, 72 h, read-out: IN Vitro IC50 (nm) Malme3
Protocol: as §1

HT29 = experiment: MTT cytotoxicity (IC50), HT29; assay type: cell-based; settings: Homo sapiens, HT-29, 72 h, read-out: IN Vitro IC50 (nm) HT29
Protocol: as §1

[1] = system: HT29 human tumor xenografts; experiment: HT29 xenograft study e212, oral and i.v. (Example 26); settings: every four day schedule for four doses
Source text: (§2) The formulation for oral studies was an ethanol and Cremophor formulation while the formulation for compound 18365 and compound 19244 dosed i.v. was 5% ethanol and 95% Liposyn II 20%.

BxPC-3 cancer cell line = experiment: MTT cytotoxicity (IC50), BxPC-3 (Oncodesign); assay type: cell-based; settings: Homo sapiens
Protocol: BxPC-3 cancer cell line (Source ATCC) and culture medium were purchased and provided by Oncodesign (France).
Tumor cells (5,000 cells per well) were plated in 96-well flat-bottom microtitration plates (Ref 167008, Batch 083310, Nunc, Dutscher, Brumath, France) and incubated at 37° C. for 24 hours before treatment in 100 μl of drug-free RPMI 1640 medium supplemented with 10% FBS. Tumor cell lines were incubated for 72 hours with 10 concentrations of both test substances and TXT (40 to 0.07 nM using ½ step dilutions). Experiments were repeated three times, each assay being issued from quadruplicate. Control cells were treated with the vehicle alone. At the end of treatments, the cytotoxic activity was evaluated by a MTT assay. These studies were conducted at Oncodesign, France.

OVCAR4 = experiment: MTT cytotoxicity (IC50), OVCAR4; assay type: cell-based; settings: Homo sapiens, OVCAR-4, 72 h, read-out: IN Vitro IC50 (nm) OVCAR4
Protocol: as §1

DLD-1 = experiment: MTT cytotoxicity (IC50), DLD-1; assay type: cell-based; settings: Homo sapiens
Protocol: as §1

[2] = system: HT29 human tumor xenografts; experiment: HT29 xenograft study e210, oral and i.v. (Example 25); settings: for CR (complete regression) / NTR NTRa/u / NTR NTRm / PR (partial regression) / TFS (tumor-free survivor) / TR (treatment-related death): n=6
Source text: as §2

PANC-1 = experiment: MTT cytotoxicity (IC50), PANC-1; assay type: cell-based; settings: Homo sapiens, 72 h, read-out: IN Vitro IC50 (nm) Panc
Protocol: as §1

SNB-19 = experiment: MTT cytotoxicity (IC50), SNB-19; assay type: cell-based; settings: Homo sapiens, 72 h, read-out: IN Vitro IC50 (nm) SNB19
Protocol: as §1

[3] = system: HT29 human tumor xenografts; experiment: HT29 xenograft study e139 (Example 23); assay type: in vivo, nude mice

## CC(=O)O[C@@]12CO[C@@H]1C[C@H](O)[C@@]1(C)C(=O)[C@H](OC(=O)C3CC3)C3=C(C)[C@@H](OC(=O)[C@H](O)[C@@H](NC(=O)OC4CCC4)c4cccs4)C[C@@](O)([C@@H](OC(=O)c4ccccc4)C12)C3(C)C (stereo partly shown) [Compound 18365]
SK-MEL-28
  IC50: 0.9 nM
786-0; MTT, 72 h, read-out: IN Vitro IC50 (nm) 786-0
  IC50: 1.1 nM
786-0; Resistance MDR1+, read-out: 786-0 Renal (Table 4, quantity not named; IC50 values as Table 2)
  IC50: 1.1 nM
A375; MTT, 72 h, read-out: IN Vitro IC50 (nm) A375
  IC50: 0.6 nM
A375; Resistance MRP9, read-out: A375 Melanoma (Table 4, quantity not named; IC50 values as Table 2)
  IC50: 0.6 nM
TK-10
  IC50: 0.5 nM
MALME-3
  IC50: 4.1 nM
HT29
  IC50: 0.5 nM
[1]
  activity in the HT29 xenograft tumor model: oral and IV activity
BxPC-3 cancer cell line; BXPC-3, 72 h, Exp 1, MTT, 72 hours, read-out: IC50 (nM) BxPC-3
  IC50: 0.79 nM
BxPC-3 cancer cell line; BXPC-3, 72 h, Exp 2, MTT, 72 hours, read-out: IC50 (nM) BxPC-3
  IC50: 1.07 nM
BxPC-3 cancer cell line; BXPC-3, 72 h, Exp 3, MTT, 72 hours, read-out: IC50 (nM) BxPC-3
  IC50: 0.99 nM
BxPC-3 cancer cell line; BXPC-3, mean of 3 experiments, read-out: IC50 Mean ± SD (nM) BxPC-3
  IC50: 0.95 ± 0.14 nM
OVCAR4
  IC50: 1.1 nM
DLD-1; MTT, 72 h, read-out: IN Vitro IC50 (nm) DLD1
  IC50: 1.1 nM
DLD-1; Resistance MDR1+, read-out: DLD1 Colon (Table 4, quantity not named; IC50 values as Table 2)
  IC50: 1.1 nM
[2]; 25 mg/kg iv q4d × 4
  % TGD: 214.3%
  BW Nadir: −7.6% (16)
  MTV (n), Day 60: 5.00 (6) mm^3
  Median TTE: 60 days
  T-C: 40.91 days
  CR (complete regression): 4
  NTR NTRa/u: 0
  NTR NTRm: 0
  PR (partial regression): 2
  TFS (tumor-free survivor): 4
  TR (treatment-related death): 0
[2]; 50 mg/kg po q4d × 4
  % TGD: 214.3%
  BW Nadir: −7.6% (16)
  MTV (n), Day 60: 8.75 (6) mm^3
  Median TTE: 60 days
  T-C: 40.91 days
  CR (complete regression): 4
  NTR NTRa/u: 0
  NTR NTRm: 0
  PR (partial regression): 2
  TFS (tumor-free survivor): 3
  TR (treatment-related death): 0
[2]; every four day schedule for four doses
  activity in the HT29 xenograft tumor model: oral and IV activity
PANC-1
  IC50: 1.2 nM
SNB-19
  IC50: 1.1 nM
[3]; 25 mg/kg i.v. q4d×4, six mice
  61-day survivors: five
  CR responses: 2
  PR responses: 4
[3]; 25 mg/kg iv q4d × 4
  Day 51 mm^3 (tumor size): 112.8 mm^3
  Day 54 mm^3 (tumor size): 124.7 mm^3
  Max. BW Loss %; Day: −17.1%; Day 16
[3]; 25 mg/kg iv q4d × 4, N=6
  Number of Death NTR: 0
  Number of Death TR: 1
